{"source": "patent US11530514B2", "about": "“Method for manufacturing a fibrous web” (Kemira Oyj, priority 2017, dated 2022)", "assay_type_in_all_cases": "cell-based", "key": {"[1]": {"system": "total aerobic bacteria", "test": "Example 3: total aerobic bacteria count in paper machine process water, biocidal pre-treatment", "conditions": "sodium hypochlorite 5 ppm as active chlorine (1 min pre-treatment) and/or DGH 100 ppm as active, untreated 7 000 000", "method": "(§1) Objective of this laboratory test was to study effect of biocidal pre-treatment on bacterial killing and spore sensitisation efficacy of a germinant surfactant comprising 35 weight-% of dodecylguanidine hydrochloride (DGH) and dipropyleneglycol as solvent in paper machine process water.\nAuthentic circulation water (1 litre) was collected from a paper machine producing food packaging board and divided into 4 samples with volume of 50 ml. To obtain equal bacterial spore content in the samples at start of the experiment, each sample was spiked with additional bacterial spores. The target level for spores was c.a. 10 000 CFU/ml. The spore solution for spiking was prepared as follows: authentic spore-forming bacteria that were isolated from a paper making process were pre-grown for 2 days at +37° C. in modified nutrient broth, after which the mature spores were harvested, and washed by using centrifugation and cold water. […]\nSamples were stored at 45° C., under mixing of 180 rpm, for 30 minutes except samples 2 and 4, which were in addition pre-treated with sodium hypochlorite for 1 minute. After the treatment the amount of total aerobic bacteria (non-pasteurized samples) and aerobic spores were quantified (plate count agar, +32° C., 2 days incubation). […]"}, "[2]": {"system": "aerobic spores", "test": "Example 2: aerobic spore count in stagnant 2 d old broke diluted with circulation water", "method": "(§2) Authentic broke and circulation water samples were collected from an alkaline paper mill producing food packaging board. 1 litre of broke was stored for 2 days, +45° C., with closed cap, without mixing, in order to induce anaerobism and thus bacterial sporulation. This stagnant sample was divided to four 100 ml samples, out of which two replicate samples were treated with a germinant surfactant comprising 35 weight-% dodecylguanidine hydrochloride (DGH) and dipropyleneglycol as solvent. The dosage was 70 mg/L as active DGH. Two replicates were left without any chemical additions as reference samples.\n(§3) After chemical contact time of 5 min, all samples were diluted three times with the circulation water and incubated for 30 minutes, at +45° C., mixing of 160 rpm. Total aerobes (PCA, +37° C.) and aerobic spores (PCA, +37° C.) were measured at start from reference samples and after the total contact time of 35 min from all samples."}, "[3]": {"system": "aerobic spores", "test": "Example 3: aerobic spore count in spiked paper machine process water, biocidal pre-treatment", "method": "as §1\nAuthentic circulation water (1 litre) was collected from a paper machine producing food packaging board and divided into 4 samples with volume of 50 ml. To obtain equal bacterial spore content in the samples at start of the experiment, each sample was spiked with additional bacterial spores. The target level for spores was c.a. 10 000 CFU/ml. The spore solution for spiking was prepared as follows: authentic spore-forming bacteria that were isolated from a paper making process were pre-grown for 2 days at +37° C. in modified nutrient broth, after which the mature spores were harvested, and washed by using centrifugation and cold water. Out of the 4 samples, • the first sample was left without any chemical addition as a reference sample. • the second sample was treated with sodium hypochlorite, at dosage of 5 mg/I, given as active chlorine; • the third sample was treated with a germinant surfactant comprising dodecylguanidine hydrochloride (DGH), at dosage level of 100 mg/I, given as active compound; and • the fourth sample was treated with sodium hypochlorite, at dosage of 5 mg/I, given as active chlorine) for 1 minute, after which the […] sample was treated with a germinant surfactant comprising dodecylguanidine hydrochloride (DGH), at dosage level of 100 mg/I, given as active compound;\nSamples were stored at 45° C., under mixing of 180 rpm, for 30 minutes except samples 2 and 4, which were in addition pre-treated with sodium hypochlorite for 1 minute. After the treatment the amount of total aerobic bacteria (non-pasteurized samples) and aerobic spores were quantified (plate count agar, +32° C., 2 days incubation). Prior to the aerobic spore determination, samples were pasteurized at +82° C. for 10 min."}, "[4]": {"system": "total aerobic bacteria", "test": "Example 1: total aerobic bacteria count in paper machine water/broke at variable pulp consistency", "conditions": "for Bacterial killing efficacy (%): DGH 100 mg/L as active vs no addition; for Total aerobic bacteria (+32° C., 2 d PCA): DGH 100 mg/L as active, 30 min, 45° C.", "excerpt": "(§4) Objective of this laboratory test was to study bacterial killing and spore sensitisation effect of a germinant surfactant composition comprising 35 weight-% of dodecylguanidine hydrochloride (DGH) and dipropyleneglycol as solvent in paper machine process water, at variable pulp consistency.\n(§5) Authentic circulation water, with low fibre content, and authentic broke, with high fibre content, were collected from a paper machine, which produced food packaging board. Circulation water and broke samples were mixed together to obtain 6 samples in total, at 3 different pulp consistency levels.\n(§6) To obtain equal bacterial spore content in the samples at the start of the experiment, each sample was spiked with additional bacterial spores. Target spore level in the sample was set to ca. 10 000 CFU/ml. The spore solution for spiking was prepared as follows: authentic spore-forming bacteria that were isolated from a paper making process were pre-grown for 2 days at +37° C. in a modified nutrient broth, after which the mature spores were harvested, and washed by using centrifugation and cold water.\n(§7) Out of the 6 samples, 3 test samples were treated with germinant surfactant comprising dodecylguanidine hydrochloride (DGH) and 3 samples were left without any chemical addition as reference samples. After addition of germinant surfactant, the test samples as well as the reference samples (no addition) were stored at 45° C., mixing of 180 rpm, for 30 minutes, followed by quantification of total aerobic bacteria (non-pasteurized samples) and aerobic spores (plate count agar, +32° C., 2 days incubation). Prior to the aerobic spore determination, samples were pasteurized at +82° C. for 10 min. Weight of suspended solids per litre of liquid, i.e. pulp consistency, was determined at the end of the test (dry weight of sample per total weight of sample)."}, "[5]": {"system": "total aerobic bacteria", "test": "Example 2: total aerobes count in stagnant 2 d old broke diluted with circulation water", "conditions": "DGH 70 mg/l active 5 min, total contact time 35 min, +45° C., untreated 9×10^6 CFU/ml", "method": "as §2, §3"}, "[6]": {"system": "aerobic spores", "test": "Example 1: aerobic spore count in spiked paper machine water/broke at variable pulp consistency", "conditions": "for Spore reduction (%): DGH 100 mg/L as active vs no addition; for Aerobic spores, cfu/ml (+82° C., 10 min, +32° C., 2 d PCA): DGH 100 mg/L as active, 30 min, 45° C.", "excerpt": "as §4, §5, §6, §7"}}, "note": "Counter-ions that a name gives are not always drawn."}
{"smiles": "CCCCCCCCCCCCNC(=N)N", "note": "[DGH, dodecylguanidine hydrochloride]", "values": [{"measurement": "Total aerobic bacteria PCA +32, 30 min @45° C.", "setting": "[1]", "value": "10 000 CFU/ml"}, {"measurement": "level of aerobic spores", "setting": "[2]; stagnant 2 d old broke, DGH 70 mg/l active 5 min, diluted, total contact time 35 min, +45° C., untreated 330 CFU/ml", "value": 120, "unit": "CFU/ml"}, {"measurement": "spore reduction", "setting": "[2]; stagnant diluted broke, DGH 70 mg/l active", "value": "> 60", "unit": "%"}, {"measurement": "spore reduction", "setting": "[3]; DGH 100 mg/l active, with or without sodium hypochlorite 5 mg/l pre-treatment, vs untreated", "value": "> 70", "unit": "%"}, {"measurement": "Bacterial killing efficacy (%)", "setting": "[4]; pulp consistency 0.1 w/w-%", "value": 100, "unit": "%"}, {"measurement": "Total aerobic bacteria (+32° C., 2 d PCA)", "setting": "[4]; pulp consistency 0.1 w/w-%", "value": 300}, {"measurement": "Bacterial killing efficacy (%)", "setting": "[4]; pulp consistency 3 w/w-%", "value": 78, "unit": "%"}, {"measurement": "Total aerobic bacteria (+32° C., 2 d PCA)", "setting": "[4]; pulp consistency 3 w/w-%", "value": "9 000"}, {"measurement": "Bacterial killing efficacy (%)", "setting": "[4]; pulp consistency 6 w/w-%", "value": 55, "unit": "%"}, {"measurement": "Total aerobic bacteria (+32° C., 2 d PCA)", "setting": "[4]; pulp consistency 6 w/w-%", "value": "77 000"}, {"measurement": "total aerobic bacteria level", "setting": "[5]", "value": "2×10^6 CFU/ml"}, {"measurement": "spore reduction", "setting": "[6]; process streams with different pulp consistencies (summary of Example 1)", "value": "> 45", "unit": "%"}, {"measurement": "Spore reduction (%)", "setting": "[6]; pulp consistency 0.1 w/w-%", "value": 98, "unit": "%"}, {"measurement": "Aerobic spores, cfu/ml (+82° C., 10 min, +32° C., 2 d PCA)", "setting": "[6]; pulp consistency 0.1 w/w-%", "value": 400, "unit": "cfu/ml"}, {"measurement": "Spore reduction (%)", "setting": "[6]; pulp consistency 3 w/w-%", "value": 87, "unit": "%"}, {"measurement": "Aerobic spores, cfu/ml (+82° C., 10 min, +32° C., 2 d PCA)", "setting": "[6]; pulp consistency 3 w/w-%", "value": 700, "unit": "cfu/ml"}, {"measurement": "Spore reduction (%)", "setting": "[6]; pulp consistency 6 w/w-%", "value": 45, "unit": "%"}, {"measurement": "Aerobic spores, cfu/ml (+82° C., 10 min, +32° C., 2 d PCA)", "setting": "[6]; pulp consistency 6 w/w-%", "value": "2 800 cfu/ml"}]}
{"smiles": "OCl", "note": "[sodium hypochlorite]", "values": [{"measurement": "Aerobic spores PCA +32 30 min @45° C.", "setting": "[3]; pasteurized +82° C. 10 min, sodium hypochlorite 5 ppm as active chlorine and/or DGH 100 ppm as active, untreated 13 000", "value": "17 000 CFU/ml"}, {"measurement": "effect on bacterial spores", "setting": "[3]; sodium hypochlorite 5 mg/l as active chlorine", "value": "did not have any effect on bacterial spores"}]}
